In ChEMBL document CHEMBL1201862, “PubChem BioAssay data set” (2004):
Active and inactive are the calls of the source.

Legend:
[1] = target: Acyl-homoserine lactone acylase PvdQ (Pseudomonas aeruginosa (strain LESB58), UniProt Q9I194); assay: PvdQ acylase enzyme activity blockers – biochemical, fluorescence, plate reader and imaging, cherry-picks, dose response (AID 493231)
[2] = target: Serine/threonine-protein phosphatase PP1-alpha catalytic subunit (Homo sapiens, UniProt P62136); assay: inhibition of protein phosphatase 1 activity – biochemical, fluorescence, dose response (AID 2403);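 note: phosphatase turnover of OMFP into fluorescent 3-O-methylfluorescein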
Serine/threonine-protein phosphatase PP1-alpha catalytic subunit, sequence (P62136 whole entry): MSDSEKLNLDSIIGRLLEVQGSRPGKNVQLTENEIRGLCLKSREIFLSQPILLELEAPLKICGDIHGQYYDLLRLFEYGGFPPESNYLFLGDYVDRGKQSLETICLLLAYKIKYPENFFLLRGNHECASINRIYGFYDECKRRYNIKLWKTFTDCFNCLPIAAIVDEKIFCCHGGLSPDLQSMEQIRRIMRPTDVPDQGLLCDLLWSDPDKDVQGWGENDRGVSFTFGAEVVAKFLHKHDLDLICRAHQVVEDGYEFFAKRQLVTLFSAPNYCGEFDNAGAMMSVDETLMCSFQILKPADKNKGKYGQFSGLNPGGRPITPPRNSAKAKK

[3] = target: Serine/threonine-protein phosphatase (Homo sapiens, UniProt Q9BPW0); assay: Counterscreen for inhibitors of PP1: fluorescence-based biochemical high throughput dose response assay to identify inhibitors of Protein Phosphatase 5 (PP5). [Related pubchem assays: 2034 (Summary (PP5 inhibitors)), 1987 (PP5 inhibitors in singlate), 2235 (PP1 inhibitors in singlate)]
Serine/threonine-protein phosphatase, sequence (Q9BPW0 whole entry): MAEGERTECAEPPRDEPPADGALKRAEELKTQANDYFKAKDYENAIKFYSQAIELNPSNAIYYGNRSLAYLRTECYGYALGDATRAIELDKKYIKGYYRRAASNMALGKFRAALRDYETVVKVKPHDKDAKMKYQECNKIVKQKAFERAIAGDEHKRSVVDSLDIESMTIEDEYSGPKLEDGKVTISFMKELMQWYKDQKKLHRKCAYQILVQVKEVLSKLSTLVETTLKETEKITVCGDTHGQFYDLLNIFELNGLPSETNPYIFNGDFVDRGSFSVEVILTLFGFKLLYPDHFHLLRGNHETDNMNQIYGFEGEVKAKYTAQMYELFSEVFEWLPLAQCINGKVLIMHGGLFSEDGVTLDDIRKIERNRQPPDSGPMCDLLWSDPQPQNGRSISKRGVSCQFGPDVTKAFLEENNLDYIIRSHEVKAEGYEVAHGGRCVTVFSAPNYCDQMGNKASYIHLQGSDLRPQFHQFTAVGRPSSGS

ORF 73 = target: T1, ORF 73 (Human herpesvirus 8, UniProt O40947); assay: KSHV LANA DNA-binding disruption – biochemical, fluorescence polarization, cherry-picked samples, dose response (AID 504725); design: species or system Human gammaherpesvirus 8;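 note: fluorescence polarization of a labeled DNA duplex reporting LANA DNA binding; potency is for inhibitors that block LANA binding to the DNA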
T1 sequence (O40947 whole entry): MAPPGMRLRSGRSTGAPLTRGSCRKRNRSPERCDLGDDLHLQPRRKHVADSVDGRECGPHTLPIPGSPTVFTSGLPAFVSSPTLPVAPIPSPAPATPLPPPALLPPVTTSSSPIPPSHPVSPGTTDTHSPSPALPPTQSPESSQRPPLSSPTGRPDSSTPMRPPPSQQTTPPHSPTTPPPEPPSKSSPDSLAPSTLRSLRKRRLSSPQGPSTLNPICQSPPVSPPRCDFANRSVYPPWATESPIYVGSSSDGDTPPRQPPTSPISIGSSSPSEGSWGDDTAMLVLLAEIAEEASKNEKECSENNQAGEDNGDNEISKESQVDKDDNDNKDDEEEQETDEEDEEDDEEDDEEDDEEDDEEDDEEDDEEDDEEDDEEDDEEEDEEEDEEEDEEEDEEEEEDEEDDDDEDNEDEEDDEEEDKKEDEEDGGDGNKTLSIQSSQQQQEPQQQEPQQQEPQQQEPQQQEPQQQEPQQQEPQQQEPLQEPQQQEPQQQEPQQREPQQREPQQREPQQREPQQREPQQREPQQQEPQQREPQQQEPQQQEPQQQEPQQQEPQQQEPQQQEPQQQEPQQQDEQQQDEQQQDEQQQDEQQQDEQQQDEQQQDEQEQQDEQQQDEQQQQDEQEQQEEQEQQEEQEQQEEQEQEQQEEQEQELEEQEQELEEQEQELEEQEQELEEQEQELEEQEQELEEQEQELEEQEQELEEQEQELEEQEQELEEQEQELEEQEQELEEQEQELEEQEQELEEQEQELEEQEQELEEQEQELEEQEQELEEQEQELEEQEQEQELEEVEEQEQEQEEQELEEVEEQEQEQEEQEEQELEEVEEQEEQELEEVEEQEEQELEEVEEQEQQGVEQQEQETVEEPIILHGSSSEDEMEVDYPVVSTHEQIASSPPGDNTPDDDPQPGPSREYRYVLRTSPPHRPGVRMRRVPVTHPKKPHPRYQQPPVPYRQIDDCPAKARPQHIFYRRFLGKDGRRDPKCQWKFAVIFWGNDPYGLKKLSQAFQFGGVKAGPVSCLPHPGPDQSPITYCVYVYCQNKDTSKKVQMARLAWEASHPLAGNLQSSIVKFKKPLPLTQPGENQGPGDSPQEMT

[4] = target: T2, Zinc finger protein mex-5 (Caenorhabditis elegans, UniProt Q9XUB2); assay: potency of MEX-5 RNA-binding blockers – biochemical, C. elegans, fluorescence polarization, dose response (AID 1960)
T2 sequence (Q9XUB2 whole entry): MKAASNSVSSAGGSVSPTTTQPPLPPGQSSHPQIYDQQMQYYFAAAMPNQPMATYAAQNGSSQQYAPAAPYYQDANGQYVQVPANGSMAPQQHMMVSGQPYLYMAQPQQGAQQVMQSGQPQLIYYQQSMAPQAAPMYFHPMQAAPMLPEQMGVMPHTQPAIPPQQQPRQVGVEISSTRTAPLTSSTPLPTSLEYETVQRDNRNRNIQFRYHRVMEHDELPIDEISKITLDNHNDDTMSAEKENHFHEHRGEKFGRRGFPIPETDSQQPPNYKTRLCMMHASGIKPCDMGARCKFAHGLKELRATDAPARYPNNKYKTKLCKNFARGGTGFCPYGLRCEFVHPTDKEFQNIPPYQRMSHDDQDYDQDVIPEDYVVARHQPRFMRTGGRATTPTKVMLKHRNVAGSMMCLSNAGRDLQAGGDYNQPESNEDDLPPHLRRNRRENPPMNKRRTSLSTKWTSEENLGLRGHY

Salmon testes DNA = assay: acridine orange-DNA binding displacement – biochemical, fluorescence polarization, cherry-picked samples, set 2, artefact control for KSHV LANA DNA-binding inhibitor project, dose response (AID 504727); design: species or system Salmonidae
[5] = target: T3, RNA-binding protein pos-1 (Caenorhabditis elegans, UniProt G5EF15); assay: disruptors of C. elegans POS-1 RNA interaction – biochemical, fluorescence polarization, dose response (AID 1964);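 note: purified POS-1 fused to maltose binding protein made in E. coli; potency of compounds blocking POS-1 binding to fluorescent RNA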
T3 sequence (G5EF15 whole entry): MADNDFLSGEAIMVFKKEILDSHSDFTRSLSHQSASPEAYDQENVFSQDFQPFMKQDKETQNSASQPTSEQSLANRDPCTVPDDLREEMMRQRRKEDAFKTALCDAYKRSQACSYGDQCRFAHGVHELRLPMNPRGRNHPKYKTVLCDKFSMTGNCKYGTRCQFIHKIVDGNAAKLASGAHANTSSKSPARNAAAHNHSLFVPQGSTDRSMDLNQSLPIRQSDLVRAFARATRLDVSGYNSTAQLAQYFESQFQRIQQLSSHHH

[6] = A cytotoxicity screen of small molecule inhibitors of the PhoP region in Salmonella typhi identified in the primary screen. [Related pubchem assays: 1850, 1864, 1985 ]; format: functional
[7] = Luminescence Cell-Based Dose Response HTS to Identify Inhibitors of 5'UTR Stem-Loop Driven Prion Protein mRNA Translation in H4 Neuroglioblastoma Cells. [Related pubchem assays: 1827 (Project Summary), 1813 (Primary HTS)]; format: functional
[8] = blockers of bursicon-stimulated LGR2 cAMP reporter – cell-based, HEK293, CRE-luciferase reporter, cherry pick, set 2, dose response (AID 743343); format: functional;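 note: transfected cells were stimulated with diluted bursicon conditioned medium after compound addition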
[9] = alpha-synuclein stem-loop luciferase translation blockers – H4 neuroglioma cells, luminescence, confirmation (AID 1988); format: functional, cell-based
HT-1080 = assay: HT1080 cell viability loss – fluorescence readout (AID 620); format: functional, cell-based; conditions: Homo sapiens
[10] = blockade of melanocortin 4 receptor signaling – cell-based, plate reader, cherry pick, counter-screen for LGR2 antagonist project, dose response (AID 743444); format: functional;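 note: transfected HEK 293 cells stimulated with alpha-MSH peptide; potency of inhibitors of the alpha-MSH evoked signal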
[11] = target: Luciferin 4-monooxygenase (Photinus pyralis, UniProt P08659); assay: Counter Screen for Luciferase-based Assay Positives. [Related pubchem assays: 620, 618, 411 ]
Luciferin 4-monooxygenase, sequence (P08659 whole entry): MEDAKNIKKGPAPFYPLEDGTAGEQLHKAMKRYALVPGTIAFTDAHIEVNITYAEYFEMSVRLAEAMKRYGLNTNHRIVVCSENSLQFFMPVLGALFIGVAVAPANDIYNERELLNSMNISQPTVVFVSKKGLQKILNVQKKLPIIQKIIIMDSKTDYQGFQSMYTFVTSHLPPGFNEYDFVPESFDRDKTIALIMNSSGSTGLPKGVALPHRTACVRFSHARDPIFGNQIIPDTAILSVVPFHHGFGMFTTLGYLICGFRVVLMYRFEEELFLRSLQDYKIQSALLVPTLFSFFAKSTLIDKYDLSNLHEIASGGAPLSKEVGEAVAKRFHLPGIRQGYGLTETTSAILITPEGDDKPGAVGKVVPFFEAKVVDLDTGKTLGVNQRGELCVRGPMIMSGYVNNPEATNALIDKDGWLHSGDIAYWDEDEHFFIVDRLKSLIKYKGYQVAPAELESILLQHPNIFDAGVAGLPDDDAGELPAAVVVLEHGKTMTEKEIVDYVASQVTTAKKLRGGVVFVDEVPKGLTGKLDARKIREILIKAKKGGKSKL

Estrogen receptor = target: T4, Estrogen receptor (Homo sapiens, UniProt P03372); assay: blockers of SRC-3 recruitment to ERα – biochemical, ELISA, streptavidin-HRP readout, orthogonal assay, confirmation (AID 1079)
T4 sequence (P03372 whole entry): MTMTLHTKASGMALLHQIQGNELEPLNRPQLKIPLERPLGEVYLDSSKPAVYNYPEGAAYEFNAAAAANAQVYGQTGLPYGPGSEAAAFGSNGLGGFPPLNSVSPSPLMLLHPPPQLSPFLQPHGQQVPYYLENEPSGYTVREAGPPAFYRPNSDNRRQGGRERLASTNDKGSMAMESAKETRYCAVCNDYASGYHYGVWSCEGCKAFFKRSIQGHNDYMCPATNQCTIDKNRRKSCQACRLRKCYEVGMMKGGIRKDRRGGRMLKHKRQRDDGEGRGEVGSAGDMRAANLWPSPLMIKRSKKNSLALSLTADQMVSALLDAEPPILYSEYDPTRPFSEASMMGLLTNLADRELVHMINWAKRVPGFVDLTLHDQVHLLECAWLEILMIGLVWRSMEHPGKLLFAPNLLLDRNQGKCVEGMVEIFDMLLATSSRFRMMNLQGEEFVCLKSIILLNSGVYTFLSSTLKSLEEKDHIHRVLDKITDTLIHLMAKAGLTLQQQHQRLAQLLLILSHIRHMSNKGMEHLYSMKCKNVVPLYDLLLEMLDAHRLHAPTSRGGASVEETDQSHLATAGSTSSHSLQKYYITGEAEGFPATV

NS3 = NS3 (Hepatitis C virus, UniProt A3EZJ3); assay: PubChem AID 2173; design: species or system Hepacivirus hominis
NS3, sequence (A3EZJ3 whole entry): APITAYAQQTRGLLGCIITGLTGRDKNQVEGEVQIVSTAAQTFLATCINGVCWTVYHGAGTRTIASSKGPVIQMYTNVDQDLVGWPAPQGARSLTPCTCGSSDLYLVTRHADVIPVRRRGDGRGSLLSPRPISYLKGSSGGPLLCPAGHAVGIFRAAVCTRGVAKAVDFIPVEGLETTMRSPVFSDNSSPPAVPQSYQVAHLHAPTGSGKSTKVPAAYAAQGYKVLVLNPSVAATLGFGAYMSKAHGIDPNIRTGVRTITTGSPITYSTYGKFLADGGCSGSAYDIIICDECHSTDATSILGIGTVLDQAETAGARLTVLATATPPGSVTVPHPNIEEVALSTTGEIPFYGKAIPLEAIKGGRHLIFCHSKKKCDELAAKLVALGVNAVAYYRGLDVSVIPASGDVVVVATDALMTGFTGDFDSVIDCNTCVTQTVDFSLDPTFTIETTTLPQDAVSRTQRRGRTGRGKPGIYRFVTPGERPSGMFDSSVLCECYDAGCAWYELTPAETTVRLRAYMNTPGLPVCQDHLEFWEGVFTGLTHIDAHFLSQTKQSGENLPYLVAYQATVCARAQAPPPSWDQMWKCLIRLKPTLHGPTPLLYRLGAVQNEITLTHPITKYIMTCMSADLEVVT

Acyl-homoserine lactone acylase PvdQ, sequence (Q9I194 24-193 limits assumed): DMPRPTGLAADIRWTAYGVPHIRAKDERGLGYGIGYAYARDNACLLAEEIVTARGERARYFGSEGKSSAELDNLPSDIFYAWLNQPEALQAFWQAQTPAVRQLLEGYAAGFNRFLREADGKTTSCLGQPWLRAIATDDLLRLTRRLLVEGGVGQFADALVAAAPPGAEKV
Acyl-homoserine lactone acylase PvdQ, sequence (Q9I194 217-762 limits assumed): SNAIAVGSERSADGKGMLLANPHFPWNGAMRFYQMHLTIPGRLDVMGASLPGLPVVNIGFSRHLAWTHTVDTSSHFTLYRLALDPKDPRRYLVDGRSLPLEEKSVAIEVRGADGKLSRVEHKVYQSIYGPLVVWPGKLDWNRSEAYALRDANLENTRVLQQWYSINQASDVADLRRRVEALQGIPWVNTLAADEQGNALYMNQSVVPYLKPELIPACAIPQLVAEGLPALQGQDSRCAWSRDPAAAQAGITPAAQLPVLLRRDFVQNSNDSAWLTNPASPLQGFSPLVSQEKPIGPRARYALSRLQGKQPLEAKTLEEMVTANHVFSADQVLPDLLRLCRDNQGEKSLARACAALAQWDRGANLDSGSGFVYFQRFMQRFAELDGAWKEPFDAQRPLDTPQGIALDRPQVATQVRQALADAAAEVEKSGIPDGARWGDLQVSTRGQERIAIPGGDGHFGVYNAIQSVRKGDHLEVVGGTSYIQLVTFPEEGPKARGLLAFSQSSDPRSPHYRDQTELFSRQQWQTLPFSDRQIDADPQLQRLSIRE

Structure (SMILES): N#CC(c1ccc(Cl)nn1)c1ccc(Cl)cc1Cl (stereo unspecified)
- AC50 [1]: 0.646 µM (active)

Structure (SMILES): CCn1c2ccccc2c2cc(NC(=O)COC(=O)c3ccc(NC(=O)CC#N)cc3)ccc21
- IC50 [2]: 7.27 µM (active)
- IC50 [3]: > 67 µM (not active)

Structure (SMILES): CCc1cc[n+](-c2[n-]c(=O)sc2C=O)cc1
- AC50 (ORF 73): 73.5 µM (active)
- EC50 [4]: 11.8 µM (active)
- AC50 (Salmon testes DNA): 141 µM (active)
- EC50 [5]: 16.7 µM (active)

Structure (SMILES): O=C(Nc1ccc(Cl)cc1)c1cccs1
- EC50 [6]: > 50 µM (active)

Structure (SMILES): O=C(Nc1nc2c(s1)CCCC2)C1COc2ccccc2O1 (stereo unspecified)
- EC50 [7]: 6.51 µM (active)
- AC50 [8]: 6.29 µM (active)
- EC50 [9]: 5.78 µM (active)
- EC50 (HT-1080): > 50 µM (not active)
- AC50 [10]: 12.1 µM (active)
- EC50 [11]: < 0.2 µM (active)

Structure (SMILES): O=C(CCCn1c(=S)[nH]c2ccccc2c1=O)N1CCN(c2cccc(O)c2)CC1
- IC50 (Estrogen receptor): 1.62 µM (not active)

Structure (SMILES): CCCOc1ccc(C2C(C(=O)c3ccc(C)o3)=C(O)C(=O)N2Cc2ccco2)cc1OCC (stereo unspecified)
- IC50 (NS3): 5.19 µM (active)
